One may read the half-life as the time needed for the level to fall by half in the phase considered. In general, IC50 refers to the concentration at which inhibition is half-maximal.

*1 amine or outer side, *2 acyl side, *3 side chain or, on linkers, in order; H or OH if unused. Where a SMILES comes first, the peptide text is derived from it. Bridges are numbered along the chain shown (N, C = ends). [ ]: non-standard residue; d: D form. Abu(4-yl) = O=C([C@H](CC[*:3])N[*:1])[*:2]; 2Nal = N[C@@H](Cc1ccc2ccccc2c1)C(=O)O; AEF = NCCOc1ccc(C[C@H](N)C(=O)O)cc1; αMeK = C[C@](N)(CCCCN)C(=O)O A value given as a limit tells only on which side of the number the result lay.

The nature of data set [1]: Half life in simulated gastric fluid at 20 uM by LC-MS/MS analysis. It is filed as ADME.
Data set [2] addresses T1, Interleukin-23 receptor (Homo sapiens, UniProt Q5VWK5).
T1 sequence (Q5VWK5 whole entry): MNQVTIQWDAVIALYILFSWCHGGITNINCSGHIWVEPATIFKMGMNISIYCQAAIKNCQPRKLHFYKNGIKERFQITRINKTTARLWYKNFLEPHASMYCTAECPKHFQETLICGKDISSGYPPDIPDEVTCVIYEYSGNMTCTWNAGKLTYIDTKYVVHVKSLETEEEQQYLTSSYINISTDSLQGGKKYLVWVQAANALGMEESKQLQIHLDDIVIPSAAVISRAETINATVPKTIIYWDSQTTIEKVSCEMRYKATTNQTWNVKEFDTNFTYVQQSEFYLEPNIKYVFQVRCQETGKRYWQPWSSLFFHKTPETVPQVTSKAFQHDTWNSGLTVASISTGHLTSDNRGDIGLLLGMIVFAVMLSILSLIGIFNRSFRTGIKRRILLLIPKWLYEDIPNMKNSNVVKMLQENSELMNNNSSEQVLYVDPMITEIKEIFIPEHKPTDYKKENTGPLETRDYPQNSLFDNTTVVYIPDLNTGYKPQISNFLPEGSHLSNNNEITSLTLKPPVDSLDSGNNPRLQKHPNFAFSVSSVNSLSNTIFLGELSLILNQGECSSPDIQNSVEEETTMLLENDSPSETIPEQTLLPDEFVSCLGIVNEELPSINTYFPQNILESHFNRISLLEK
In words: Inhibition of interleukin-23 receptor in human DB cells assessed as reduction in IL-23-stimulated STAT3 phosphorylation incubated for 30 mins by HTRF assay. It is filed as cell-based. Background: TR-FRET usually uses a lanthanide donor and a delayed reading to cut background.

Data set [3] is described as follows: Half life in simulated intestinal fluid at 20 uM by LC-MS/MS analysis. It is filed as ADME.
For data set [4], the target named is T1, Interleukin-23 receptor. In words: Inhibition of interleukin-23 binding to human interleukin-23 receptor incubated for 2 hrs by competitive binding ELISA. (In general: ELISA stands for enzyme-linked immunosorbent assay.)

On to `CC(=O)N[C@H](C(=O)N[C@@H](CC(N)=O)C(=O)N[C@H](C(=O)N[C@@H](Cc1c[nH]c2ccccc12)C(=O)N[C@@H](CCC(N)=O)C(=O)N[C@H](C(=O)N[C@@H](Cc1ccc(OCCN)cc1)C(=O)N[C@@H](Cc1ccc2ccccc2c1)C(=O)N[C@@H](CCC(C)C)C(=O)N[C@@H](CCC(=O)O)C(=O)N[C@@H](CC(N)=O)C(=O)N[C@@H](C)C(N)=O)C(C)(C)S)[C@@H](C)O)C(C)(C)S`, for which the results for the half-life at 20 µM in data set [1] and in data set [3] were under 1 h and 1 to 2 h, respectively. Also, the IC50 in data set [2] is under 10 nM.
Regarding `CC(=O)N[C@H]1CCSC[C@@H](C(=O)N[C@@H](Cc2ccc(OCCN)cc2)C(=O)N[C@@H](Cc2ccc3ccccc3c2)C(=O)N[C@@](C)(CCCCN)C(=O)N[C@@H](CC(N)=O)C(=O)N[C@@H](CC(N)=O)C(=O)NCC(N)=O)NC(=O)[C@H](CCC(N)=O)NC(=O)[C@H](Cc2c[nH]c3ccccc23)NC(=O)[C@H]([C@@H](C)O)NC(=O)[C@H](CCC(N)=O)NC1=O` (Ac-[Abu(4-yl)]QTWQC[AEF][2Nal][αMeK]NNG-NH2; thioether 1-6), the half-life at 20 µM in data set [1] and in data set [3] was 3 to 6 h each time. Also, the concentration for half-maximal inhibition (IC50) in data set [2] and in data set [4] was under 10 nM in each case.
In the case of `CC[C@H](NC(=O)[C@H](CC(N)=O)NC(=O)[C@H](CCCCNC(C)=O)NC(=O)C(C)(C)NC(=O)[C@H](Cc1ccc2ccccc2c1)NC(=O)[C@H](Cc1ccc(OC)cc1)NC(=O)[C@@H](NC(=O)[C@H](CCC(N)=O)NC(=O)[C@H](Cc1c[nH]c2ccccc12)NC(=O)[C@@H](NC(=O)[C@H](CC(N)=O)NC(=O)[C@@H](NC(C)=O)C(C)(C)S)[C@@H](C)O)C(C)(C)S)C(N)=O`, the half-life at 20 µM in data set [1] was over 6 h; in data set [3], 3 to 6 h. Besides, the IC50 in data set [2] is under 10 nM.
On to `CC(=O)N[C@H](C(=O)N[C@@H](CCC(N)=O)C(=O)N[C@H](C(=O)N[C@@H](Cc1c[nH]c2ccccc12)C(=O)N[C@@H](CCC(N)=O)C(=O)N[C@H](C(=O)N[C@@H](Cc1ccc(OCCN)cc1)C(=O)N[C@@H](Cc1ccc2ccccc2c1)C(=O)N[C@@H](CCC(C)C)C(=O)N[C@@H](CCC(=O)O)C(=O)N[C@@H](CC(N)=O)C(=O)N[C@@H](C)C(N)=O)C(C)(C)S)[C@@H](C)O)C(C)(C)S`, for which the half-life at 20 µM in data set [1] and in data set [3] was under 1 h throughout. The IC50 in data set [2] lay in the range of 10 to 25 nM.
With `COc1ccc(C[C@H](NC(=O)[C@@H](NC(=O)[C@H](CCC(N)=O)NC(=O)[C@H](Cc2c[nH]c3ccccc23)NC(=O)[C@@H](NC(=O)[C@H](CC(N)=O)NC(=O)[C@@H](NC(C)=O)C(C)(C)S)[C@@H](C)O)C(C)(C)S)C(=O)N[C@@H](Cc2ccc3ccccc3c2)C(=O)NC(C)(C)C(=O)N[C@@H](CCCCNC(C)=O)C(=O)N[C@@H](CC(N)=O)C(=O)N[C@@H](CC(N)=O)C(N)=O)cc1`, the half-life at 20 µM in data set [1] and in data set [3] was over 6 h throughout. The IC50 in data set [2] was under 10 nM.
For the compound `CC(=O)NCCCC[C@H](NC(=O)C(C)(C)NC(=O)[C@H](Cc1ccc2ccccc2c1)NC(=O)[C@H](Cc1ccc(OCCN)cc1)NC(=O)[C@@H](NC(=O)[C@H](CCC(N)=O)NC(=O)[C@H](Cc1c[nH]c2ccccc12)NC(=O)[C@@H](NC(=O)[C@H](CCC(N)=O)NC(=O)[C@@H](NC(C)=O)C(C)(C)S)[C@@H](C)O)C(C)(C)S)C(=O)N[C@@H](CC(N)=O)C(=O)NCCC(N)=O`, the half-life at 20 µM in data set [1] and in data set [3] was over 6 h in each case. Besides, the IC50 in data set [2] is under 10 nM.
As for `COc1ccc(C[C@H](NC(=O)[C@@H](NC(=O)[C@H](CCC(N)=O)NC(=O)[C@H](Cc2c[nH]c3ccccc23)NC(=O)[C@@H](NC(=O)[C@H](CC(N)=O)NC(=O)[C@@H](NC(C)=O)C(C)(C)S)[C@@H](C)O)C(C)(C)S)C(=O)N[C@@H](Cc2ccc3ccccc3c2)C(=O)NC(C)(C)C(=O)N[C@@H](CCCCNC(C)=O)C(=O)N[C@@H](CC(N)=O)C(=O)N[C@@H](CCC(N)=O)C(N)=O)cc1`, the half-life at 20 µM in data set [1] and in data set [3] was over 6 h each time. In data set [2], the IC50 was under 10 nM.
For `CC(=O)NCCCC[C@H](NC(=O)C(C)(C)NC(=O)[C@H](Cc1ccc2ccccc2c1)NC(=O)[C@H](Cc1ccc(OCCN)cc1)NC(=O)[C@@H](NC(=O)[C@H](CCC(N)=O)NC(=O)[C@H](Cc1c[nH]c2ccccc12)NC(=O)[C@@H](NC(=O)[C@@H](NC(=O)[C@@H](NC(C)=O)C(C)(C)S)[C@@H](C)O)[C@@H](C)O)C(C)(C)S)C(=O)N[C@@H](CC(N)=O)C(=O)N[C@@H](CC(N)=O)C(N)=O`, the half-life at 20 µM in data set [1] and in data set [3] was over 6 h in each case. For the same compound, the IC50 in data set [2] is under 10 nM.
Take `COc1ccc(C[C@H](NC(=O)[C@@H](NC(=O)[C@H](CCC(N)=O)NC(=O)[C@H](Cc2c[nH]c3ccccc23)NC(=O)[C@@H](NC(=O)[C@H](CC(N)=O)NC(=O)[C@@H](NC(C)=O)C(C)(C)S)[C@@H](C)O)C(C)(C)S)C(=O)N[C@@H](Cc2ccc3ccccc3c2)C(=O)NC(C)(C)C(=O)N[C@@H](CCC(=O)O)C(=O)N[C@@H](CC(N)=O)C(=O)N[C@@H](CC(N)=O)C(N)=O)cc1`: the figures for the half-life at 20 µM in data set [1] and in data set [3] were over 6 h and 2 to 3 h, respectively. In data set [2], the IC50 was under 10 nM.
Consider `CC(=O)NCCCC[C@H](NC(=O)C(C)(C)NC(=O)[C@H](Cc1ccc2ccccc2c1)NC(=O)[C@H](Cc1ccc(OCCN)cc1)NC(=O)[C@@H](NC(=O)[C@H](CCC(N)=O)NC(=O)[C@H](Cc1c[nH]c2ccccc12)NC(=O)[C@@H](NC(=O)[C@H](CC(N)=O)NC(=O)[C@@H](NC(C)=O)C(C)(C)S)[C@@H](C)O)C(C)(C)S)C(=O)N[C@@H](CC(N)=O)C(=O)N[C@@H](CCC(N)=O)C(N)=O`, for which the half-life at 20 µM in data set [1] and in data set [3] was over 6 h in each case. Further, the IC50 in data set [2] was under 10 nM.
Regarding `CC(=O)NCCCC[C@H](NC(=O)C(C)(C)NC(=O)[C@H](Cc1ccc2ccccc2c1)NC(=O)[C@H](Cc1ccc(OCCN)cc1)NC(=O)[C@@H](NC(=O)[C@H](CCC(N)=O)NC(=O)[C@H](Cc1c[nH]c2ccccc12)NC(=O)[C@@H](NC(=O)[C@H](CC(N)=O)NC(=O)[C@@H](NC(C)=O)C(C)(C)S)[C@@H](C)O)C(C)(C)S)C(=O)N[C@@H](CC(N)=O)C(=O)N[C@@H](C)C(N)=O`, the half-life at 20 µM in data set [1] and in data set [3] was over 6 h each time. Also, the IC50 in data set [2] was under 10 nM.
Regarding `COc1ccc(C[C@H](NC(=O)[C@@H](NC(=O)[C@H](CCC(N)=O)NC(=O)[C@H](Cc2c[nH]c3ccccc23)NC(=O)[C@@H](NC(=O)[C@H](CC(N)=O)NC(=O)[C@@H](NC(C)=O)C(C)(C)S)[C@@H](C)O)C(C)(C)S)C(=O)N[C@@H](Cc2ccc3ccccc3c2)C(=O)N[C@@H](CCC(C)C)C(=O)N[C@@H](CCCCNC(C)=O)C(=O)N[C@@H](CC(N)=O)C(=O)NCCC(N)=O)cc1`, the half-life at 20 µM in data set [1] and in data set [3] was under 1 h throughout. The IC50 in data set [2] is under 10 nM.
Consider `COc1ccc(C[C@H](NC(=O)[C@@H]2CSCC[C@H](NC(C)=O)C(=O)N[C@@H](CCC(N)=O)C(=O)N[C@@H]([C@@H](C)O)C(=O)N[C@@H](Cc3c[nH]c4ccccc34)C(=O)N[C@@H](CCC(N)=O)C(=O)N2)C(=O)N[C@@H](Cc2ccc3ccccc3c2)C(=O)N[C@H](C(=O)N[C@@H](CCCCNC(C)=O)C(=O)N[C@@H](CC(N)=O)C(=O)NCC(N)=O)C2CCCCC2)cc1`, for which the half-life at 20 µM in data set [1] was 3 to 6 h; in data set [3], 2 to 6 h. The compound further gave an IC50 in data set [4] of 25 to 100 nM.
On to `COc1ccc(C[C@H](NC(=O)[C@@H](NC(=O)[C@H](CCC(N)=O)NC(=O)[C@H](Cc2c[nH]c3ccccc23)NC(=O)[C@@H](NC(=O)[C@H](CCC(N)=O)NC(=O)[C@@H](NC(C)=O)C(C)(C)S)[C@@H](C)O)C(C)(C)S)C(=O)N[C@@H](Cc2ccc3ccccc3c2)C(=O)NC(C)(C)C(=O)N[C@@H](CCC(=O)O)C(=O)N[C@@H](CC(N)=O)C(=O)N[C@@H](CC(N)=O)C(N)=O)cc1`, for which the half-life at 20 µM is over 6 h in data set [1] and 2 to 3 h in data set [3]. The IC50 in data set [2] was under 10 nM.
`CC(=O)NCCCC[C@H](NC(=O)[C@H](CCC(C)C)NC(=O)[C@H](Cc1ccc2ccccc2c1)NC(=O)[C@H](Cc1ccc(OCCN)cc1)NC(=O)[C@@H](NC(=O)[C@H](CCC(N)=O)NC(=O)[C@H](Cc1c[nH]c2ccccc12)NC(=O)[C@@H](NC(=O)[C@H](CC(N)=O)NC(=O)[C@@H](NC(C)=O)C(C)(C)S)[C@@H](C)O)C(C)(C)S)C(=O)N[C@@H](CC(N)=O)C(=O)NCCC(N)=O`: the half-life at 20 µM in data set [1] and in data set [3] was under 1 h in each case. Further, the IC50 in data set [2] is under 10 nM.
As for `COc1ccc(C[C@H](NC(=O)[C@@H](NC(=O)[C@H](CCC(N)=O)NC(=O)[C@H](Cc2c[nH]c3ccccc23)NC(=O)[C@@H](NC(=O)[C@H](CCC(N)=O)NC(=O)[C@@H](NC(C)=O)C(C)(C)S)[C@@H](C)O)C(C)(C)S)C(=O)N[C@@H](Cc2ccc3ccccc3c2)C(=O)NC(C)(C)C(=O)N[C@@H](CCCCNC(C)=O)C(=O)N[C@@H](CC(N)=O)C(=O)N[C@@H](CC(N)=O)C(N)=O)cc1`, the half-life at 20 µM in data set [1] is over 6 h; in data set [3], 3 to 6 h. In data set [2], the half-maximal inhibitory concentration (IC50) is under 10 nM.
